Source: patent US10370371B2, “Substituted pyrimidine Bmi-1 inhibitors” (PTC Therapeutics, Inc., priority 2013, dated 2019)
pEC50: −log10 of the molar value.

Experiments:
Bmi-1 protein = assay: Sandwich ELISA Assay (Bmi-1 protein level in HT-1080 cells); type: cell-based
Procedure, shortened: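 HT-1080 cells were treated with compounds (0.5% DMSO final) for 40-48 h at 37 °C. Lysates were assayed by sandwich ELISA: mouse anti-Bmi-1 capture, rabbit anti-Bmi-1 and HRP anti-rabbit detection, TMB read at OD450 (OD570 reference). Levels were quantified against a recombinant GST-Bmi-1 standard curve (125-8000 pg/mL).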

Structure (SMILES)	pEC50 (Bmi-1 protein)	melting point
CCc1nc2ccc(F)cc2n1-c1cc(N)nc(Nc2ccc(OC)c(F)c2)n1 [Cpd 168, 6-(2-ethyl-6-fluoro-1H-benzimidazol-1-yl)-N^2-(3-fluoro-4-methoxyphenyl)pyrimidine-2,4-diamine]	8.00 to 9.00	129 to 131 °C
Cc1nc2ccc(F)cn2c1-c1cc(N)nc(Nc2ccc(F)cc2)n1 [Cpd 169, 6-(6-fluoro-2-methylimidazo[1,2-a]pyridin-3-yl)-N^2-(4-fluorophenyl)pyrimidine-2,4-diamine]	5.52 to 7.00	250 to 253 °C
Cc1nc2ccc(F)cn2c1-c1cc(N)nc(Nc2ccc(Cl)cc2)n1 [Cpd 172, N^2-(4-chlorophenyl)-6-(6-fluoro-2-methylimidazo[1,2-a]pyridin-3-yl)pyrimidine-2,4-diamine]	8.00 to 9.00	243 to 246 °C
CCc1nc2ccc(F)cc2n1-c1cc(N)nc(Nc2ccc(Cl)c(F)c2)n1 [Cpd 175, N^2-(4-chloro-3-fluorophenyl)-6-(2-ethyl-6-fluoro-1H-benzimidazol-1-yl)pyrimidine-2,4-diamine]	7.00 to 8.00	209 to 211 °C
Cc1cc2nc(C)n(-c3cc(N)nc(Nc4ccc(Cl)cc4)n3)c2cc1C [Cpd 184, N^2-(4-chlorophenyl)-6-(2,5,6-trimethyl-1H-benzimidazol-1-yl)pyrimidine-2,4-diamine]	5.52 to 7.00	111 to 112 °C
COc1ccc(Nc2nc(N)cc(-n3c(C)nc4cc(C)c(C)cc43)n2)cc1 [Cpd 185, N^2-(4-methoxyphenyl)-6-(2,5,6-trimethyl-1H-benzimidazol-1-yl)pyrimidine-2,4-diamine]	7.00 to 8.00	113 to 114 °C
COc1ccc(Nc2nc(N)cc(-n3c(C)nc4cc(C)c(C)cc43)n2)cc1F [Cpd 186, N^2-(3-fluoro-4-methoxyphenyl)-6-(2,5,6-trimethyl-1H-benzimidazol-1-yl)pyrimidine-2,4-diamine]	7.00 to 8.00	120 to 121 °C
COc1ccc(Nc2nc(N)cc(-n3c(C)nc4cc(C)c(C)cc43)n2)cc1Cl [Cpd 187, N^2-(3-chloro-4-methoxyphenyl)-6-(2,5,6-trimethyl-1H-benzimidazol-1-yl)pyrimidine-2,4-diamine]	7.00 to 8.00	129 to 131 °C
Cc1cc2nc(C)n(-c3cc(N)nc(Nc4ccc(OC(F)F)cc4)n3)c2cc1C [Cpd 188, N^2-[4-(difluoromethoxy)phenyl]-6-(2,5,6-trimethyl-1H-benzimidazol-1-yl)pyrimidine-2,4-diamine]	7.00 to 8.00	89 to 91 °C
COc1ccc(Nc2nc(N)cc(-c3c(C)noc3C)n2)cc1 [Cpd 189, 6-(3,5-dimethyl-1,2-oxazol-4-yl)-N^2-(4-methoxyphenyl)pyrimidine-2,4-diamine]	5.52 to 7.00	89 to 91 °C
